Test results taken from paper PMC9352230 (ACS Omega, 2022).

Legend:
ENPP1 [1] = target: T1, ENPP1 (Homo sapiens, UniProt P22413); experiment: ENPP1 enzyme inhibition assay; type: biochemical; conditions: for inhibition at 100 µM: read-out: ENPP1 % inhibition ± SD
T1 sequence (P22413 1-925): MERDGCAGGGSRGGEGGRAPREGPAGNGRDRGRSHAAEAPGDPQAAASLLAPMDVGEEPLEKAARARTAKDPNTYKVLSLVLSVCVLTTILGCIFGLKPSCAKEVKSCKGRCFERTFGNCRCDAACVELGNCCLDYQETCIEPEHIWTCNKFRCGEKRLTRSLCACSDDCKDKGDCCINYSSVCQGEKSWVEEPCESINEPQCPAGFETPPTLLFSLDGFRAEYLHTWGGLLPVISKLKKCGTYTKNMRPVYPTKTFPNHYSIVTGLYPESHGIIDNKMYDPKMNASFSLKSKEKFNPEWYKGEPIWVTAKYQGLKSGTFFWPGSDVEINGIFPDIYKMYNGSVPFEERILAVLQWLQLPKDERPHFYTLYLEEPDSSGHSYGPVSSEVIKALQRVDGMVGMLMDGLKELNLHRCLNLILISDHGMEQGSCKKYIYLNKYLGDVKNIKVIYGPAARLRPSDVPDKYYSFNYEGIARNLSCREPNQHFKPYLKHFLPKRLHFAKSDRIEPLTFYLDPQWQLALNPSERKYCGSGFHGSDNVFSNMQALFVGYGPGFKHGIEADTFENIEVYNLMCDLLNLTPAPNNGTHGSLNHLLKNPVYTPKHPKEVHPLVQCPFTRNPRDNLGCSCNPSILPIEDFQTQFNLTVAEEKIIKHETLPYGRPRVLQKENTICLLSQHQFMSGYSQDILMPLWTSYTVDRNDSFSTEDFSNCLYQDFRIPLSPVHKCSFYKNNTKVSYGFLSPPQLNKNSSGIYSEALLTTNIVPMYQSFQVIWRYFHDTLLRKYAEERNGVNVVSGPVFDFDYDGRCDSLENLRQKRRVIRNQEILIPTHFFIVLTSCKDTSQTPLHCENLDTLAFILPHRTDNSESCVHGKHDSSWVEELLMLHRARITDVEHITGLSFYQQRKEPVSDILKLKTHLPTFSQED

ENPP3 = target: T2, ENPP3 (Homo sapiens, UniProt O14638); experiment: ENPP3 enzyme inhibition assay; type: biochemical; conditions: for inhibition at 100 µM: read-out: ENPP3 % inhibition ± SD
T2 sequence (O14638 1-875): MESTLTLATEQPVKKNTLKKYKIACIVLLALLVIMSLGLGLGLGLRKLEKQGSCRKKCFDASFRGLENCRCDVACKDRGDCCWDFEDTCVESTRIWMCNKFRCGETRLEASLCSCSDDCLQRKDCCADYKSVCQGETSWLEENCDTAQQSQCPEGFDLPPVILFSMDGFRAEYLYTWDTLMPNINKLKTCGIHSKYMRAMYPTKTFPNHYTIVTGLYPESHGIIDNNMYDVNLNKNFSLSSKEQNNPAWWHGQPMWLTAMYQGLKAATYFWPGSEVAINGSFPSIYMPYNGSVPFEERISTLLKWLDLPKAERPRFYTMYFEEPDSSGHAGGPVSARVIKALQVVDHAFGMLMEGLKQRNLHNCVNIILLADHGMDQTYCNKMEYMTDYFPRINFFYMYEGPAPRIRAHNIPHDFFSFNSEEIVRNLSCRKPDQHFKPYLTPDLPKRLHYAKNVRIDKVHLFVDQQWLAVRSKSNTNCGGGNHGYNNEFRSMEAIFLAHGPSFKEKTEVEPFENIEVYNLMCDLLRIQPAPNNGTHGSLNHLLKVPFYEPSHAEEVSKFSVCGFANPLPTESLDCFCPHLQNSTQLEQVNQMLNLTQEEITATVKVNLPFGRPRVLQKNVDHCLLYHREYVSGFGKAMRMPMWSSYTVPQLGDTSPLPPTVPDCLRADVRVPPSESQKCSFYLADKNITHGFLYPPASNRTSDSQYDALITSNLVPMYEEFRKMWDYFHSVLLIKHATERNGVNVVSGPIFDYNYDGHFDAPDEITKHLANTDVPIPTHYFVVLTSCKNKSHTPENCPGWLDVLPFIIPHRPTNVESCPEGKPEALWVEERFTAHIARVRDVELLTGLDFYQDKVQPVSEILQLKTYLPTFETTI

[2] = system: MCF7 (human breast cancer cell line); experiment: MTT cytotoxicity assay, MCF7; type: cell-based; conditions: MCF7, 24 h, read-out: MCF7 (% inhibition ±SD)
[3] = system: HEK293 (human embryonic kidney cell line); experiment: MTT cytotoxicity assay, HEK293; type: cell-based; conditions: Homo sapiens, HEK293, 24 h, read-out: HEK293 (% inhibition ±SD)
ENPP1 [4] = conditions: read-out: ENPP1 IC50; selective inhibitor of ENPP1; cited from earlier work

| Structure (SMILES) | IC50 (ENPP1 [1]) [nM] | IC50 (ENPP3) [nM] | inhibition at 100 µM (ENPP3) [%] | inhibition at 100 µM (ENPP1 [1]) [%] | inhibition at 100 µM [2] [%] | inhibition at 100 µM [3] [%] | IC50 (ENPP1 [4]) [nM] |
| --- | --- | --- | --- | --- | --- | --- | --- |
| Cc1ccc(C(=O)Nc2ccc(OS(=O)(=O)c3ccc(I)cc3)cc2)cc1 [4c, 4-(4-methylbenzamido)phenyl 4-Iodobenzenesulfonate] | 14400 ± 540 | 4230 ± 380 |  |  | 33.2 ± 1.32 | 15.2 ± 0.83 |  |
| COc1ccc(S(=O)(=O)Oc2ccc(NC(=O)c3ccc(C)cc3)cc2)cc1 [4d, 4-(4-Methylbenzamido)phenyl 4-Methoxybenzenesulfonate] | 180 ± 10 |  | 45.7 ± 2.35 |  | 31.5 ± 2.43 | 13.1 ± 0.73 |  |
| CCCc1ccc(S(=O)(=O)Oc2ccc(NC(=O)c3ccc(C)cc3)cc2)cc1 [4f, 4-(4-Methylbenzamido)phenyl 4-Propylbenzenesulfonate] |  |  | 8.4 ± 3.11 |  | 25.7 ± 0.92 | 4.2 ± 0.12 |  |
| O=C(NS(=O)(=O)c1ccccc1)n1ccc2cccnc21 [N-(pyrrolo[2,3-b]pyridine-1-carbonyl)benzenesulfonamide] |  |  |  |  |  |  | 4500 ± 160 |
| O=C(Nc1ccc(OS(=O)(=O)c2cccc3cccnc23)cc1)c1ccccc1 [4q, 4-Benzamidophenyl Quinoline-8-sulfonate] | 370 ± 30 |  | 19.5 ± 3.53 |  | 11.2 ± 1.04 | 4.6 ± 0.32 |  |
| O=C(Nc1ccc(OS(=O)(=O)Cc2ccccc2)cc1)c1ccccc1 [4n, 4-Benzamidophenyl Phenylmethanesulfonate] | 3960 ± 120 | 4120 ± 50 |  |  | 7.3 ± 0.03 | 5.8 ± 0.23 |  |
| Cc1ccc(C(=O)Nc2ccc(OS(=O)(=O)c3ccc(C)cc3)cc2)cc1 [4a, 4-(4-Methylbenzamido)phenyl 4-Methylbenzenesulfonate] |  |  | 17 ± 3.24 | 26.2 ± 2.11 | 1.1 ± 0.12 | 5.3 ± 0.81 |  |
| COc1cccc2c1C(=O)c1c(O)c3c(c(O)c1C2=O)C[C@@](O)(C(=O)CO)C[C@@H]3O[C@H]1C[C@H](N)[C@H](O)[C@H](C)O1 [doxorubicin, reference compound] |  |  |  |  | 88.8 ± 2.74 |  |  |
| Cc1ccc(C(=O)Nc2ccc(OS(=O)(=O)c3ccccc3F)cc2)cc1 [4l, 4-(4-Methylbenzamido)phenyl 2-Fluorobenzenesulfonate] | 150 ± 10 | 3480 ± 340 |  |  | 0.5 ± 0.03 | 17.4 ± 0.83 |  |
| Cc1ccc(C(=O)Nc2ccc(OS(=O)(=O)Cc3ccccc3)cc2)cc1 [4i, 4-(4-Methylbenzamido)phenyl Phenylmethanesulfonate] | 130 ± 10 |  | 46.7 ± 1.54 |  | 5.7 ± 0.06 | 11.2 ± 0.92 |  |
| Cc1ccc(C(=O)Nc2ccc(OS(=O)(=O)c3ccc(OC(F)(F)F)cc3)cc2)cc1 [4g, 4-(4-Methylbenzamido)phenyl 4-(Trifluoromethoxy)benzenesulfonate] | 450 ± 70 | 190 ± 20 |  |  | 11.7 ± 0.84 | 3.2 ± 0.11 |  |

Continued, in another order:

| IC50 (ENPP1 [1]) [nM] | IC50 (ENPP3) [nM] | inhibition at 100 µM (ENPP3) [%] | inhibition at 100 µM (ENPP1 [1]) [%] | Structure (SMILES) | inhibition at 100 µM [2] [%] | inhibition at 100 µM [3] [%] | IC50 (ENPP1 [4]) [nM] |
| --- | --- | --- | --- | --- | --- | --- | --- |
| 810 ± 50 |  | 28.2 ± 3.22 |  | CC1(C(=O)Nc2ccc(OS(=O)(=O)c3ccccc3F)cc2)c2ccccc2-c2ccccc21 [7a, 4-(9-Methyl-9H-fluorene-9-carboxamido)phenyl 2-Fluorobenzenesulfonate] | 12.7 ± 0.62 | 14.6 ± 1.12 |  |
|  | 29800 ± 2130 |  | 45.2 ± 1.53 | Cc1ccc(C(=O)Nc2ccc(OS(=O)(=O)c3ccccc3)cc2)cc1 [4b, 4-(4-methylbenzamido)phenyl Benzenesulfonate] | 7.4 ± 0.04 | 6.4 ± 0.22 |  |
|  | 160 ± 10 |  | 9.2 ± 4.13 | CC1(C(=O)Nc2ccc(OS(C)(=O)=O)cc2)c2ccccc2-c2ccccc21 [7d, 4-(9-Methyl-9H-fluorene-9-carboxamido)phenyl Methanesulfonate] | 0.2 ± 0.06 | 5.5 ± 0.36 |  |
|  | 150 ± 40 |  | 41.4 ± 3.24 | O=C(Nc1ccc(OS(=O)(=O)c2ccc(OC(F)(F)F)cc2)cc1)c1ccccc1 [4t, 4-Benzamidophenyl 4-(trifluoromethoxy)benzenesulfonate] | 29.6 ± 1.22 | 8.6 ± 0.14 |  |
| 1510 ± 20 |  | 33.5 ± 1.92 |  | O=C(Nc1ccc(OS(=O)(=O)c2ccc(-c3ccccc3)cc2)cc1)c1ccccc1 [4p, 4-Benzamidophenyl [1,1′-Biphenyl]-4-sulfonate] | 8.4 ± 0.75 | 4.3 ± 0.15 |  |
|  | 820 ± 120 |  | 44.8 ± 1.52 | Cc1ccc(C(=O)Nc2ccc(OS(=O)(=O)c3ccc(Cl)cc3)cc2)cc1 [4e, 4-(4-Methylbenzamido)phenyl 4-Chlorobenzenesulfonate] | 24.2 ± 1.73 | 8.3 ± 0.35 |  |
| 820 ± 50 |  | 22.6 ± 2.12 |  | COc1ccc(S(=O)(=O)Oc2ccc(NC(=O)c3ccccc3)cc2)cc1 [4m, 4-Benzamidophenyl 4-Methoxybenzenesulfonate] | 4.1 ± 0.01 | 2.3 ± 1.12 |  |
| 8450 ± 250 |  | 42.1 ± 2.44 |  | CC1(C(=O)Nc2ccc(OS(=O)(=O)c3ccccc3)cc2)c2ccccc2-c2ccccc21 [7f, 4-(9-Methyl-9H-fluorene-9-carboxamido)phenyl Benzenesulfonate] | 5.6 ± 1.11 | 6.2 ± 1.17 |  |
| 5760 ± 570 | 2950 ± 250 |  |  | O=C(Nc1ccc(OS(=O)(=O)c2ccc(F)cc2)cc1)c1ccccc1 [4s, 4-Benzamidophenyl 4-Fluorobenzenesulfonate] | 2.1 ± 0.08 | 20.6 ± 1.14 |  |
| 7610 ± 20 | 370 ± 80 |  |  | Cc1ccc(C(=O)Nc2ccc(OS(=O)(=O)c3ccc(F)cc3)cc2)cc1 [4k, 4-(4-Methylbenzamido)phenyl 4-Fluorobenzenesulfonate] | 11.2 ± 0.52 | 2.1 ± 1.22 |  |
| 2010 ± 340 | 530 ± 190 |  |  | O=C(Nc1ccc(OS(=O)(=O)c2ccc(I)cc2)cc1)c1ccccc1 [4r, 4-Benzamidophenyl 4-Iodobenzenesulfonate] | 10.2 ± 0.86 | 11.3 ± 0.71 |  |
| 1730 ± 30 |  | 27.1 ± 4.54 |  | Cc1ccc(C(=O)Nc2ccc(OS(=O)(=O)c3ccc(-c4ccccc4)cc3)cc2)cc1 [4h, 4-(4-Methylbenzamido)phenyl [1,1′-Biphenyl]-4-sulfonate] | 9.1 ± 0.71 | 4.8 ± 0.24 |  |
| 1710 ± 40 | 2120 ± 80 |  |  | CCCc1ccc(S(=O)(=O)Oc2ccc(NC(=O)c3ccccc3)cc2)cc1 [4o, 4-Benzamidophenyl 4-Propylbenzenesulfonate] | 63.2 ± 2.51 | 12.6 ± 0.74 |  |
| 500 ± 30 | 6690 ± 1890 |  |  | CC1(C(=O)Nc2ccc(OS(=O)(=O)c3ccc(F)cc3)cc2)c2ccccc2-c2ccccc21 [7c, 4-(9-Methyl-9H-fluorene-9-carboxamido)phenyl 4-Fluorobenzenesulfonate] | 12.4 ± 1.22 | 9.2 ± 0.42 |  |
| 900 ± 160 | 4160 ± 220 |  |  | CC1(C(=O)Nc2ccc(OS(=O)(=O)C(F)(F)F)cc2)c2ccccc2-c2ccccc21 [7b, 4-(9-Methyl-9H-fluorene-9-carboxamido)phenyl Trifluoromethanesulfonate] | 14.1 ± 0.63 | 24.5 ± 1.16 |  |
